The source of these data is EP0363353B1, “FUSED BENZAZEPINES” (SCHERING CORPORATION, priority 1987, dated 1989).

For one assay, the target named is T1, D-2 receptor (Rattus norvegicus, UniProt P61169).
T1 construct: Striatal tissue was excised, pooled, and homogenized; from tissue; host or cells: rat striatum (Sprague-Dawley), washed membrane pellet
The assay can be described thus: Competitive inhibition assay, displacement of 3H-spiperone. Type of assay: binding. The note with it: 3H-spiperone 0.2 nM; rat striatal tissue homogenate; 37°C for 15 minutes. An excerpt: (§1) A methodology for characterization of D-1 and D-2 receptor binding and an interpretation of the data are described by Billard et al., Life Sciences 35, 1885 (1984) in which the binding of the benzazepine (R)-(+)-8-chioro-2,3,4,5-tetrahydro-3-methyi-5-phenyi-1H-3-benzazepin-7-oi hemimaleate (SCH 23390) to the dopamine D-1 receptor is characterized. A selectivity for D-1 receptor binding as compared to D-2 receptor binding is believed to confer the therapeutic advantage of avoiding troublesome and potentially irreversible neurological side effects associated with D-2 receptor occupancy. […]
(§2) Polypropylene incubation tubes received 100 µl of the individual test compounds at various concentrations dissolved or suspended in 0.05 M Tris, pH 7.4 containing 4 mg/ml methylcellulose, 100 µl of a solution of^3H-SCH 23390 in Tris buffer (final reaction mixture concentration =0.3 nM) or 100 µl of a solution of ^3H-spiperone in Tris buffer (final concentration = 0.2 nM) and 800 µl of tissue suspension (ca. 3 mg/assay). […] The filters were-transferred to scintillation vials, equilibated with 10 ml of scintillant (Scintosol, Isolab, Inc.) for 16 hours at 25°C and the radioactivity determined in a liquid scintillation counter. […]

The next assay deals with T2, dopamine D-1 receptor (Rattus norvegicus, UniProt P18901).
T2 construct: Striatal tissue was excised, pooled, and homogenized; from tissue; host or cells: rat striatum (Sprague-Dawley), washed membrane pellet
The assay can be described thus: Competitive inhibition assay, displacement of 3H-SCH 23390. The assay is classed as binding.
From the text: as §1, §2
In general terms: Displacement assays read how much labelled ligand stays bound in the presence of the test substance.

As a reminder, the Ki is a measure of affinity in units of concentration, obtained from inhibition or displacement. Higher therefore signals weaker binding.

T2 sequence (P18901 whole entry): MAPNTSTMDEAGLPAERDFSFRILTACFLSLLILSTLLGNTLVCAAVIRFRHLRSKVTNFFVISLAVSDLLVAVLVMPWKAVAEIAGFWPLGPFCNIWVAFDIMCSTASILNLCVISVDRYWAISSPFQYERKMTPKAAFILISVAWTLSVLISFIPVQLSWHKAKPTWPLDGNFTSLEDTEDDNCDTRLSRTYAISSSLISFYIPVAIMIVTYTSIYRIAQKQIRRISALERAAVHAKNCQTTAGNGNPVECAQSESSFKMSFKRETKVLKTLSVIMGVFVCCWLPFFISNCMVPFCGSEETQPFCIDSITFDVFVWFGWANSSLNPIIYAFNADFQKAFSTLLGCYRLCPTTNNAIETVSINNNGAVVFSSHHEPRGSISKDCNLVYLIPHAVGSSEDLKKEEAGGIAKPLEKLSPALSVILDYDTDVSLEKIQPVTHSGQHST
T1 sequence (P61169 whole entry): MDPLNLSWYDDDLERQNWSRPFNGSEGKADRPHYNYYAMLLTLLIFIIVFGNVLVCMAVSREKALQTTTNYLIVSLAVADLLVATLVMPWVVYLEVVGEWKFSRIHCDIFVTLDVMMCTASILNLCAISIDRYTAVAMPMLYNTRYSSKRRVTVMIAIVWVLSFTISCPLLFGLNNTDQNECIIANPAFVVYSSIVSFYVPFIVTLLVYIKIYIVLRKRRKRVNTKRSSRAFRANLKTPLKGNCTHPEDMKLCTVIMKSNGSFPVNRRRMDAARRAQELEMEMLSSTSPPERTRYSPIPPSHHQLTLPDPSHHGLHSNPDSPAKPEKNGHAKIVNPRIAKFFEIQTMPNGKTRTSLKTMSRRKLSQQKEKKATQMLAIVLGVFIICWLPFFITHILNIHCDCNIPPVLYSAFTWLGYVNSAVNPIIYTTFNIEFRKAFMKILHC

As to `Oc1cc2c(cc1Cl)CCN[C@H]1Cc3ccccc3[C@H]21` (racemic), the Ki on D-2 receptor was 1580 nM; on dopamine D-1 receptor, 7 nM.
For `CN1CCc2cc(Cl)c(O)cc2[C@H]2c3ccccc3C[C@@H]21` (racemic) [Trans-6-methyl-5,6,7,7a,8,12b-hexahydro-2-hydroxy-3-chloro-benz[d]indeno-[2,1-b]azepine] the same measures were 12000 nM and 7 nM.
